Like-named read-outs stand apart in the source and are kept apart here.
Assay: Phase I trial of oral PCLX-001: plasma pharmacokinetics, noncompartmental analysis (Phoenix WinNonlin 8.3)
Type: in vivo, human
Conditions: for AUC(0-t): read-out: AUClast; for Tmax: read-out: Tmax
Source text: The clinical trial is entitled “Phase I Trial of PCLX-001 in B-cell Non-Hodgkin Lymphoma and Advanced Solid Malignancies” and registered at clinicaltrials.gov as NCT04836195. It is a phase I dose-escalation study of oral PCLX-001, conducted in a multicenter, non-randomized, open-label, non-controlled design. The study is comprised of two parts: Part A (single-agent dose escalation) and Part B (single-agent expansion cohorts).
Patients are to receive daily oral PCLX-001 on 28-day cycles, beginning with a starting dose of 20 mg.
[…] After dosing, the blood samples (volumes 3 mL) were serially collected into heparinized tubes from a right forearm butterfly cannula. All blood fluid specimens were frozen and later assayed using a validated UHPLC-MS detection method.
Noncompartmental pharmacokinetic analysis was performed using Phoenix WinNonlin 8.3 using trapezoidal rule and linear up log down methodology. WinNonlin was allowed to pick optimal terminal phases.
Nonparametric superposition was performed using Phoenix WinNonlin Nonparametric Superposition to predict steady state data based upon Day 1 data for each patient. It utilized the 8- and 24-hour time points for estimation of terminal phase for the purposes of this exercise. We simulated 20 mg daily oral dosing and simulations were conducted out to steady state. Results are show in FIGS. 5, 6, and 7.
In the non-compartmental analysis, Phoenix WinNonlin 8.3 trapezoidal rule was used, with linear up log down method. This allowed WinNonlin to pick optimal terminal phase (WinNonlin will accept Rsq adjusted to >0.7). Additional analysis to assess adequate fie included visual inspection of data, and AUCextrap should be <15%.
Phoenix WinNonlin 8.3 trapezoidal rule. Used linear up log down method. Allowed WinNonlin to pick optimal terminal phase (WinNonlin will accept Rsq adjusted >0.7).
Other analysis to assess adequate fit. Visual inspection of data. AUCextrap should be <15%.

[1] = Table 1A, Patient 115-002-001 (Patient 1), Day 1, 20 mg oral daily
[2] = human, plasma, oral, 20 mg, Table 4, Mean, not on Pantoprazole, 20 mg, N 3, Day 1
[3] = human, plasma, oral, 20 mg, Table 4, Mean, not on Pantoprazole, 20 mg, N 3, Day 15
[4] = human, plasma, oral, 40 mg, Table 4, not on Pantoprazole, 40 mg, N 1, Day 1
[5] = human, plasma, oral, 40 mg, Table 4, not on Pantoprazole, 40 mg, N 1, Day 15
[6] = human, plasma, oral, 40 mg, Table 5, on Pantoprazole, 40 mg, N 1, Day 1
[7] = human, plasma, oral, 40 mg, Table 5, on Pantoprazole, 40 mg, N 1, Day 15
[8] = human, plasma, oral, 70 mg, Table 4, not on Pantoprazole, 70 mg, N 1, Day 1

With `Cc1c(NS(=O)(=O)c2c(Cl)cc(-c3ccnc(N4CCNCC4)c3)cc2Cl)c(CC(C)C)nn1C` [PCLX-001, 2,6-dichloro-N-(3-isobutyl-1,5-dimethyl-1H-pyrazol-4-yl)-4-(2-(piperazin-1-yl)pyridin-4-yl)benzene sulfonamide] the “systemic accumulation of drug” value (Patient 1, by day 15, 20 mg oral daily) was “without systemic accumulation of drug”, the drug accumulation (Patient 2, 20 mg oral daily) was “No significant drug accumulation” and the AUCextrep [1] was 15.9%. It also gave a half-life [1] of 8.5 h, an AUCextrep (Table 1A, Patient 115-002-001 (Patient 1), Day 15, 20 mg oral daily) of 21.9% and an AUCextrep (Table 1A, Patient 115-002-002 (Patient 2), Day 15, 20 mg oral daily) of 20.4%. The AUCextrep (Table 1A, Patient 115-002-004 (Patient 3), Day 1, 20 mg oral daily) was 5.41%, the AUCextrep (Table 1A, Patient 115-002-004 (Patient 3), Day 15, 20 mg oral daily) was 11.3% and the AUCextrap (Table 6, Patient 115-002-001, Day 1, 20 mg QD oral, Pantoprazole No) was 15.3%. It also gave an AUCextrap (Table 6, Patient 115-002-001, Day 15, 20 mg QD oral, Pantoprazole No) of 23.7%, an AUCextrap (Table 6, Patient 115-002-002, Day 15, 20 mg QD oral, Pantoprazole No) of 17.5% and an AUCextrap (Table 6, Patient 115-002-004, Day 1, 20 mg QD oral, Pantoprazole No) of 5.1%. It also gave an AUCextrap (Table 6, Patient 115-002-004, Day 15, 20 mg QD oral, Pantoprazole No) of 10.0%, an AUCextrap (Table 7, Patient 115-002-005, Day 1, 40 mg QD oral, Pantoprazole Yes) of 9.5% and an AUCextrap (Table 7, Patient 115-002-005, Day 15, 40 mg QD oral, Pantoprazole Yes) of 5.3%. For the same compound, the AUCextrap (Table 7, Patient 115-009-001, Day 1, 40 mg QD oral, Pantoprazole No) was 20.1%, the AUCextrap (Table 7, Patient 115-009-001, Day 15, 40 mg QD oral, Pantoprazole No) was 24.9% and the AUCextrap (Table 8, Patient 115-024-001, Day 1, 70 mg QD oral, Pantoprazole No) was 16.8%. It also gave an AUCextrap (Table 9, Patient 115-002-009, Day 1, 100 mg QD oral, Pantoprazole No) of 4.4%, an AUCextrap (Table 9, Patient 115-002-010, Day 1, 100 mg QD oral, Pantoprazole No) of 10.9% and an AUCextrap (Table 9, Patient 115-002-011, Day 1, 100 mg QD oral, Pantoprazole No) of 18.4%. The AUCextrap (Table 9, Patient 115-002-012, Day 15, 100 mg QD oral, Pantoprazole No) was 12.2%, the AUCextrap (Table 10, Patient 115-002-006, Day 1, Dose 140 mg QD oral, Concomitant Pantoprazole No) was 5.48% and the AUCextrap (Table 10, Patient 115-002-006, Day 15, Dose 140 mg QD oral, Concomitant Pantoprazole No) was 22.7%. It also gave an AUCextrap (Table 10, Patient 115-024-005, Day 1, Dose 140 mg QD oral, Concomitant Pantoprazole Yes) of 12.1%, an AUCextrap (Table 10, Patient 115-024-005, Day 15, Dose 140 mg QD oral, Concomitant Pantoprazole Yes) of 37.9% and an AUCextrap (Table 10, Patient 115-024-013, Day 1, Dose 140 mg QD oral, Concomitant Pantoprazole Yes) of 12.5%. For the same compound, the AUCextrap (Table 10, Patient 115-024-013, Day 15, Dose 140 mg QD oral, Concomitant Pantoprazole Yes) was 39.9%, the “dose proportionality of systemic exposure” value (dose range of 20 to 140 mg) was “dose proportional” and the Cmax (human, plasma, oral, 20 mg, Table 3, human (patient 1), 20 mg/75 kg = 0.27 mg/kg) was 479 ng/mL. The half-life (human, plasma, oral, 20 mg, Table 3, human (patient 1), 20 mg/75 kg = 0.27 mg/kg, read-out: Terminal elimination half-life (converted)) was 16 h, the Cmax (human, plasma, oral, 20 mg, Table 4, Mean (CV), not on Pantoprazole, 20 mg, N 3, Day 1) was 276 ng/mL and the half-life (human, plasma, oral, 20 mg, Table 4, Mean (CV), not on Pantoprazole, 20 mg, N 3, Day 1, read-out: t½ (converted)) was 6.93 h. For the same compound, the Cmax (human, plasma, oral, 20 mg, Table 4, Mean (CV), not on Pantoprazole, 20 mg, N 3, Day 15) was 359 ng/mL, the half-life (human, plasma, oral, 20 mg, Table 4, Mean (CV), not on Pantoprazole, 20 mg, N 3, Day 15, read-out: t½ (converted)) was 8.93 h and the AUC(0-inf) [2] was 1960 ng·h/mL. For the same compound, the AUC(0-t) [2] was 1600 ng·h/mL, the AUC(0-inf) [3] was 2720 ng·h/mL and the AUC(0-t) [3] was 2220 ng·h/mL. For the same compound, the Tmax (human, plasma, oral, 20 mg, Table 4, median (min, max), not on Pantoprazole, 20 mg, N 3, Day 1) was 2 h, the Tmax (human, plasma, oral, 20 mg, Table 4, median (min, max), not on Pantoprazole, 20 mg, N 3, Day 15) was 1 h and the AUC(0-inf) [4] was 12600 ng·h/mL. The Cmax [4] was 1670 ng/mL, the AUC(0-t) [4] was 10100 ng·h/mL and the Tmax [4] was 1 h. The half-life (human, plasma, oral, 40 mg, Table 4, not on Pantoprazole, 40 mg, N 1, Day 1, read-out: t½ (converted)) was 10.8 h, the AUC(0-inf) [5] was 18300 ng·h/mL and the Cmax [5] was 1480 ng/mL. It also gave an AUC(0-t) [5] of 13700 ng·h/mL, a Tmax [5] of 2 h and a half-life (human, plasma, oral, 40 mg, Table 4, not on Pantoprazole, 40 mg, N 1, Day 15, read-out: t½ (converted)) of 11.9 h. The AUC(0-inf) [6] was 4900 ng·h/mL, the Cmax [6] was 868 ng/mL and the AUC(0-t) [6] was 4430 ng·h/mL. For the same compound, the Tmax [6] was 0.5 h, the half-life (human, plasma, oral, 40 mg, Table 5, on Pantoprazole, 40 mg, N 1, Day 1, read-out: t½ (converted)) was 7.5 h and the AUC(0-inf) [7] was 7060 ng·h/mL. For the same compound, the Cmax [7] was 802 ng/mL, the AUC(0-t) [7] was 6680 ng·h/mL and the Tmax [7] was 2 h. It also gave a half-life (human, plasma, oral, 40 mg, Table 5, on Pantoprazole, 40 mg, N 1, Day 15, read-out: t½ (converted)) of 5.54 h, an AUC(0-inf) [8] of 11300 ng·h/mL and a Cmax [8] of 1430 ng/mL. For the same compound, the AUC(0-t) [8] was 9400 ng·h/mL, the Tmax [8] was 1 h and the half-life (human, plasma, oral, 70 mg, Table 4, not on Pantoprazole, 70 mg, N 1, Day 1, read-out: t½ (converted)) was 9.44 h.

— patent US20250161299A1, “ORAL PCLX-001 IN THE TREATMENT OF HUMAN CANCER” (PACYLEX PHARMACEUTICALS INC., priority 2022, published 2025)
